Measured values taken from PubChem BioAssay AID743164 (Broad Institute, 2013).
Calls of active or inactive are those of the source. How the calls were made is not given here.

Legend:
[1] = tested on: Mycobacterium tuberculosis, starved, CFU imaging; assay: IC90 against starved M. tuberculosis, dose response, CFU by imaging, dry powder, 7108-04 (AID 743164)
[2] = as above; settings: Mycobacterium tuberculosis, starved, CFU imaging

Compound | IC90 [1] [µM] | outcome [2]
Cn1c(NC(=O)c2ccccc2)nc2ccccc21 | < 8 | –
CCOC(=O)NC(=O)c1ccsc1NC(=O)c1nc2ccccc2s1 | – | inactive
